The source made the active and inactive calls. No cut-off for these calls is given here.
How the values were obtained:
[1] = molecular target: Epidermal growth factor receptor (Homo sapiens, UniProt P00533); assay: Inhibition of wild type EGFR (unknown origin) by mobility shift assay
[2] = molecular target: Epidermal growth factor receptor (Homo sapiens, UniProt P00533, L858R/T790M); assay: Inhibition of EGFR L858R/T790M mutant (unknown origin) by mobility shift assay
[3] = molecular target: Epidermal growth factor receptor (Homo sapiens, UniProt P00533, C797S/L858R/T790M); assay: Inhibition of EGFR L858R/T790M/C797S mutant (unknown origin) by mobility shift assay
[4] = molecular target: Hepatocyte growth factor receptor (Homo sapiens, UniProt P08581); assay: Inhibition of c-Met (unknown origin) by mobility shift assay
[5] = system: A549; assay: Antiproliferative activity against human A549 cells assessed as cell viability after 72 hrs by MTT assay; format: functional, cell-based; settings: A549, 72 h
[6] = system: NCI-H1975; assay: Antiproliferative activity against human H1975 cells assessed as cell viability after 72 hrs by MTT assay; format: functional, cell-based; settings: NCI-H1975, 72 h
[7] = system: A549; assay: Induction of apoptosis in human A549 cells assessed as cell shrinkage after 48 hrs by AO/EB staining based fluorescent microscopic analysis; format: functional; settings: dose 0.1-10 µM, DDE = dose-dependent effect
[8] = system: A549; assay: Induction of apoptosis in human A549 cells assessed as chromatin condensation after 48 hrs by AO/EB staining based fluorescent microscopic analysis; format: functional, cell-based; settings: dose 0.1-10 µM, DDE = dose-dependent effect
[9] = system: NCI-H1975; assay: Induction of apoptosis in human H1975 cells assessed as cell shrinkage after 48 hrs by AO/EB staining based fluorescent microscopic analysis; format: functional; settings: dose 0.1-10 µM, DDE = dose-dependent effect
[10] = system: NCI-H1975; assay: Induction of apoptosis in human H1975 cells assessed as chromatin condensation after 48 hrs by AO/EB staining based fluorescent microscopic analysis; format: functional, cell-based; settings: dose 0.1-10 µM, DDE = dose-dependent effect
[11] = system: A549; assay: Inhibition of cell migration of human A549 cells at 0.1 to 1 uM after 24 hrs by scratch wound healing assay; format: functional, cell-based; settings: dose 0.1-1 µM
[12] = system: NCI-H1975; assay: Inhibition of cell migration of human H1975 cells at 0.1 to 1 uM after 24 hrs by scratch wound healing assay; format: functional, cell-based; settings: dose 0.1-1 µM
[13] = system: NCI-H1975; assay: Induction of cell cycle arrest in human H1975 cells assessed as number of cells at S phase at 1.3 uM after 24 hrs by flow cytometry (reference value: 25.41%); format: functional
[14] = system: NCI-H1975; assay: Induction of cell cycle arrest in human H1975 cells assessed as number of cells at S phase at 4 uM after 24 hrs by flow cytometry (reference value: 25.41%); format: functional
[15] = system: NCI-H1975; assay: Induction of cell cycle arrest in human H1975 cells assessed as number of cells at S phase at 12 uM after 24 hrs by flow cytometry (reference value: 25.41%); format: functional
[16] = system: NCI-H1975; assay: Induction of cell cycle arrest in human H1975 cells assessed as number of cells at G2/M phase at 1.3 uM after 24 hrs by flow cytometry (reference value: 31.41%); format: functional
[17] = system: NCI-H1975; assay: Induction of cell cycle arrest in human H1975 cells assessed as number of cells at G2/M phase at 4 uM after 24 hrs by flow cytometry (reference value: 31.41%); format: functional
[18] = system: NCI-H1975; assay: Induction of cell cycle arrest in human H1975 cells assessed as number of cells at G2/M phase at 12 uM after 24 hrs by flow cytometry (reference value: 31.41%); format: functional
[19] = system: NCI-H1975; assay: Induction of cell cycle arrest in human H1975 cells assessed as number of cells at G1/G0 phase at 1.3 uM after 24 hrs by flow cytometry (reference value: 43.18%); format: functional
[20] = system: NCI-H1975; assay: Induction of cell cycle arrest in human H1975 cells assessed as number of cells at G1/G0 phase at 4 uM after 24 hrs by flow cytometry (reference value: 43.18%); format: functional
[21] = system: NCI-H1975; assay: Induction of cell cycle arrest in human H1975 cells assessed as number of cells at G1/G0 phase at 12 uM after 24 hrs by flow cytometry (reference value: 43.18%); format: functional
[22] = system: Epidermal growth factor receptor (Homo sapiens), P00533 [L858R,T790M,C797S]; settings: dose 300.0 nM
Sequence of Epidermal growth factor receptor (Homo sapiens), P00533 [L858R,T790M,C797S] (P00533 whole entry T790M/C797S/L858R): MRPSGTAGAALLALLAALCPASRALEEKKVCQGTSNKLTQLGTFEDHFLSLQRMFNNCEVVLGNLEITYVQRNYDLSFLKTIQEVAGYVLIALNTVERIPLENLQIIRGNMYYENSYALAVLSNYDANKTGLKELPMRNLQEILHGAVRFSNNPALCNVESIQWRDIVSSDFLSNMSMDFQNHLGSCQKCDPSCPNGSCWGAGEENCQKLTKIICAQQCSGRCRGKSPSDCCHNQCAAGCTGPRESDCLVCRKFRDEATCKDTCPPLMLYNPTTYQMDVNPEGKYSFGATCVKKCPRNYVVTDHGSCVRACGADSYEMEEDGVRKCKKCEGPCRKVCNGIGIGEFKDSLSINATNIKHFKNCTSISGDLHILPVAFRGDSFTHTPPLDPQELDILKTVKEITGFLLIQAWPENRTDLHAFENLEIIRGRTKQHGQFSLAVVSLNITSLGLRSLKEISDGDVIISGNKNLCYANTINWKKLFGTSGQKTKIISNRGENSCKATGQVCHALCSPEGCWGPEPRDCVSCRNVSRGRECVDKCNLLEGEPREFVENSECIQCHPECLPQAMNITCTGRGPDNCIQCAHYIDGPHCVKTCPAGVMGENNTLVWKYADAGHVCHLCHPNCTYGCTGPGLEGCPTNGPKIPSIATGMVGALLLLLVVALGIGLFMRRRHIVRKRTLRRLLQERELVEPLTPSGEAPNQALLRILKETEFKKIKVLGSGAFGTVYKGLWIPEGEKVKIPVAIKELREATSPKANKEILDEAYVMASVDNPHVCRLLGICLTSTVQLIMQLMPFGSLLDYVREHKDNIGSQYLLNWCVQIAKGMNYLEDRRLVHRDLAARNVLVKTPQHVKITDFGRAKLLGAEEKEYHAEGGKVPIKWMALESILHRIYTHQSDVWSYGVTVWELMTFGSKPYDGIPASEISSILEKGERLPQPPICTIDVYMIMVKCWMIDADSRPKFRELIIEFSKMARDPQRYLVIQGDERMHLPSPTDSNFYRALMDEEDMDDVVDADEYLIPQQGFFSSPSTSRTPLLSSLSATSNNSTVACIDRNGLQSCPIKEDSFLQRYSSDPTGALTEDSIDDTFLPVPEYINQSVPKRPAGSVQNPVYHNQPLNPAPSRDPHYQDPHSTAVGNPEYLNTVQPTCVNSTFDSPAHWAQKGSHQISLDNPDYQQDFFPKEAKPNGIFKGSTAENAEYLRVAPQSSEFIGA

Sequence of Epidermal growth factor receptor (Homo sapiens, UniProt P00533, C797S/L858R/T790M) (P00533 25-1210 T790M/C797S/L858R limits assumed): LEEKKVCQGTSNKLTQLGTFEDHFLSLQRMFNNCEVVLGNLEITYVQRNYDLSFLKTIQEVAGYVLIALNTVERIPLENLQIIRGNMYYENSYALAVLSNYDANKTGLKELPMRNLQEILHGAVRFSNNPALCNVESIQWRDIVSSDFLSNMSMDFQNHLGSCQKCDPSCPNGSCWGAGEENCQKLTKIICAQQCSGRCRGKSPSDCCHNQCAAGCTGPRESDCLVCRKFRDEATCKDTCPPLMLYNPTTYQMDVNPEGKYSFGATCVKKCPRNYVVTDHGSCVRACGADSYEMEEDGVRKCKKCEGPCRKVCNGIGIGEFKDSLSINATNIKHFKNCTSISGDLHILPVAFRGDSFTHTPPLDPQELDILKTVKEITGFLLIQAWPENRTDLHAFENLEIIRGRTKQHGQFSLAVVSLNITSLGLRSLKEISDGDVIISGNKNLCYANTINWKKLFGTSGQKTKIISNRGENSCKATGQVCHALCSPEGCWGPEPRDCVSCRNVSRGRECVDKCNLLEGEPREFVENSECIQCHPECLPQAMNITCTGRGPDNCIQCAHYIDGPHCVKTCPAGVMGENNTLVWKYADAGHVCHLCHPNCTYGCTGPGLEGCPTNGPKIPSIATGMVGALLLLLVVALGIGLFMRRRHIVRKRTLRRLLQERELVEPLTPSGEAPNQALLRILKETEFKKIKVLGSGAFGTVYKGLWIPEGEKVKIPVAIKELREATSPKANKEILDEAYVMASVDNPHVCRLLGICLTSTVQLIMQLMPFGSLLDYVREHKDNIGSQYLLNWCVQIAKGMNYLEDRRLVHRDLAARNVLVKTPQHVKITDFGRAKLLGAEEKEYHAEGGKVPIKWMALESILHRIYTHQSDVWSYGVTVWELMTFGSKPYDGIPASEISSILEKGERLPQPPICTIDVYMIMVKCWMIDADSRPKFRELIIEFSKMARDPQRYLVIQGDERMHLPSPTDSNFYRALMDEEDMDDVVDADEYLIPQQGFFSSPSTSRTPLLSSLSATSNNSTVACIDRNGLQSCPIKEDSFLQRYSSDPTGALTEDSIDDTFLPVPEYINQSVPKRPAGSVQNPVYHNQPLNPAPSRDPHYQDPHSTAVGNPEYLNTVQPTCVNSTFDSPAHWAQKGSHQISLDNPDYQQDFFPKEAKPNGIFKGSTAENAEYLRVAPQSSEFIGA
Sequence of Epidermal growth factor receptor (Homo sapiens, UniProt P00533) (P00533 whole entry): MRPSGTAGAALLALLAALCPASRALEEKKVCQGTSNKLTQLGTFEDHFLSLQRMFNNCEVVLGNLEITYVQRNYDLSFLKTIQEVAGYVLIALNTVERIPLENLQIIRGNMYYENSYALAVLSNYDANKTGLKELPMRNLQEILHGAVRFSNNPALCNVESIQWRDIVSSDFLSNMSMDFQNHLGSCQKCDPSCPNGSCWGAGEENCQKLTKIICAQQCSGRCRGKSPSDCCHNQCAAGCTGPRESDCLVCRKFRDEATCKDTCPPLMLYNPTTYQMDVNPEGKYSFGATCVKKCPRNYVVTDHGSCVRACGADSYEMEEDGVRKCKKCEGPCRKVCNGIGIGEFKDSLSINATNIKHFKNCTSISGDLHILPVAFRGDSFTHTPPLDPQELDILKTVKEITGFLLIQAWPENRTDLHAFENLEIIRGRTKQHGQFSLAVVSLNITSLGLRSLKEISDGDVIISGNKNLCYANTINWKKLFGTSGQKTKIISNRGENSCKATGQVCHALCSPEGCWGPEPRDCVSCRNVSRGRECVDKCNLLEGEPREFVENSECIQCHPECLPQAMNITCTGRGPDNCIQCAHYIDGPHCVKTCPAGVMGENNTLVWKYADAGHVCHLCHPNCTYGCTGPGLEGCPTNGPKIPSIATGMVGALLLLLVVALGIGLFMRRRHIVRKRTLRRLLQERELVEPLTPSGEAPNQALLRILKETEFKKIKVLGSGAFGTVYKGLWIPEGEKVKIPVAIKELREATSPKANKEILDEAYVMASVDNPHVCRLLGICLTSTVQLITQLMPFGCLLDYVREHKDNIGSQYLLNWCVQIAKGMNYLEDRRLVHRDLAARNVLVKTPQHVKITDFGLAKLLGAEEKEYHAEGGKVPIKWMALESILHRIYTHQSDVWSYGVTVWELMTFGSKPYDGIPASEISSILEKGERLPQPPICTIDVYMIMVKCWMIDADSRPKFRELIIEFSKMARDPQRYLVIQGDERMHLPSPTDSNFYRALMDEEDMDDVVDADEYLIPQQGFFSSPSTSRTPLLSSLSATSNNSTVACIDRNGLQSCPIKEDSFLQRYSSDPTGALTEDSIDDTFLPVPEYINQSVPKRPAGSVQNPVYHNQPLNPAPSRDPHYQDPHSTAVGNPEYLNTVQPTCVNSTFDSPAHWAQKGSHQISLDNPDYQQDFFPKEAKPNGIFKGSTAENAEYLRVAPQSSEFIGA
Sequence of Epidermal growth factor receptor (Homo sapiens, UniProt P00533, L858R/T790M) (P00533 25-1210 T790M/L858R limits assumed): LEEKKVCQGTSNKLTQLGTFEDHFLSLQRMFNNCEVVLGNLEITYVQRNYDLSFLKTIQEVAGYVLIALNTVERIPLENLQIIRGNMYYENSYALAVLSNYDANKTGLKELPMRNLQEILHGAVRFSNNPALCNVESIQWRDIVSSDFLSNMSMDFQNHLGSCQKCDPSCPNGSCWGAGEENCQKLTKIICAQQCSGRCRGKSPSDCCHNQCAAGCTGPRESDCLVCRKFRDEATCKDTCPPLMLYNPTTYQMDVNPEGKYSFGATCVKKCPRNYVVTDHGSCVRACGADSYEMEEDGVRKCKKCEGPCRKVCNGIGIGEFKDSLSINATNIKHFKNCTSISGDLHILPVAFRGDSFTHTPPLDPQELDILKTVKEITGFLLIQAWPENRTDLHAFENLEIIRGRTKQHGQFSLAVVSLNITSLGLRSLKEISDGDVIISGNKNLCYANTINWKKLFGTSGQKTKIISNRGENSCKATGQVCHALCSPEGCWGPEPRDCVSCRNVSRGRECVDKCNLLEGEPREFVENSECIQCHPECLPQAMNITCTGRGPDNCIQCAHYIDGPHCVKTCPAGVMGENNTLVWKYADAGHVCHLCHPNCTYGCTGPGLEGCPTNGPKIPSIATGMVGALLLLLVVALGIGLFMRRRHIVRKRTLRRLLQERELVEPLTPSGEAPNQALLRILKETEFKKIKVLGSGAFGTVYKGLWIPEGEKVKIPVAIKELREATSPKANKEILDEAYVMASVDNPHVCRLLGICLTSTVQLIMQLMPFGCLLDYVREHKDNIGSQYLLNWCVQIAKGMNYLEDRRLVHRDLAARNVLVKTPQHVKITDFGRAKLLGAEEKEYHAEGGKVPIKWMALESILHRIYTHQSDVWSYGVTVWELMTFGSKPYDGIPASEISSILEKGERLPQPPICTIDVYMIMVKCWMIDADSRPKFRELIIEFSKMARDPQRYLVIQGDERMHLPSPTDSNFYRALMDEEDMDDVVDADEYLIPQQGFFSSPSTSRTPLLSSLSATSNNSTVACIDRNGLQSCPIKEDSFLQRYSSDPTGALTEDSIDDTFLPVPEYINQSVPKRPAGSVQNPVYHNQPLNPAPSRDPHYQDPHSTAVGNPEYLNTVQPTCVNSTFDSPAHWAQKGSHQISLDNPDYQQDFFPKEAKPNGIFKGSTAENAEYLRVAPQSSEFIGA

COc1cc(N(C)CCN(C)C)c(NC(=O)c2ccncn2)cc1Nc1nccc(-c2cn(C)c3ccccc23)n1
IC50 [1]: 29 nM | IC50 [2]: 10 nM | IC50 [3]: 242 nM | IC50 [4]: > 1000 nM | IC50 [5]: 2530 nM | IC50 [6]: 1560 nM | Activity [7]: Dde | Activity [8]: Dde | Activity [9]: Dde | Activity [10]: Dde | inhibition [11]: Active | inhibition [12]: Active | Activity [13]: 22.67% | Activity [14]: 18.36% | Activity [15]: 12.55% | Activity [16]: 31.18% | Activity [17]: 31.02% | Activity [18]: 30.13% | Activity [19]: 46.15% | Activity [20]: 50.62% | Activity [21]: 57.32% | inhibition [22]: 60.8%

Reference: ChEMBL document CHEMBL5137051 (Eur J Med Chem, 2022)
